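Method: 48-hour compound exposure of cells in 96-well plates, five concentrations, linear interpolation of endpoints. GI50: concentration for 50% inhibition of growth.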 The source made the active and inactive calls. No stated cut-off is given here; in the data, active = GI50 up to about 1.1 µM and inactive = higher.

The text below walks through data of ChEMBL document CHEMBL1201862, “PubChem BioAssay data set” (2004).

What all share (assay): NCI anticancer screen, dose series, 48 h
The test system of assay [1] is T47D.
The test system of assay [2] is UACC-257.
The subject of assay [3] is NCI/ADR-RES.
Assay [4] deals with PC-3.
Assay [5] relates to NCI-H460.
Assay [6] deals with OVCAR-5.
Assay [7] has as its system A498.
Assay [8] deals with NCI-H23.
In assay [9] the test system is IGROV-1.
Assay [10] deals with HCT-116.
The subject of assay [11] is ACHN.
For assay [12], the system named is UACC-62.
Assay [13] concerns A549.
Assay [14] deals with CAKI-1.
Assay [15] concerns HCC 2998.
The test system of assay [16] is HL-60.
For assay [17], the system named is MOLT-4.
Assay [18] deals with EKVX.
Assay [19] deals with Malme-3M.
Assay [20] relates to SF-539.

For `N#CC12CNCC1CN=N2` (configuration not stated), the GI50 in assay [1], in [2], in assay [3], in assay [4], in assay [5] and in [6] was > 100 µM (inactive) each time. Moreover, the GI50 in assay [7], in assay [8], in assay [9], in assay [10], in assay [11] and in assay [12] was > 100 µM (inactive) in each case. Moreover, the GI50 in assay [13], in assay [14], in assay [15], in assay [16], in [17] and in assay [18] was > 100 µM (inactive) in each case. Moreover, the GI50 in assay [19] was > 100 µM (inactive).
`CCN(CCCl)c1cc(CN(C)C)cc(NC(=O)C23CCC(C(=O)Nc4cc(CN(C)C)cc(N(CC)CCCl)c4)(CC2)CC3)c1`: the GI50 in assay [1] was 3.03 µM (inactive); in assay [2], 3.96 µM (inactive); in [20], 0.443 µM (active); in [3], 29.9 µM (inactive); in assay [4], 0.351 µM (active); in assay [5], 0.0687 µM (active). Also, the GI50 is 1.5 µM (inactive) in assay [6]; 6.44 µM (inactive) in assay [7]; 0.424 µM (active) in assay [8]; 1.44 µM (inactive) in assay [9]; 1.11 µM (active) in assay [10]; 2.22 µM (inactive) in assay [11]. Also, the GI50 in assay [12] is 1.14 µM (inactive); in assay [13], 1.03 µM (active); in assay [14], 11.1 µM (inactive); in assay [15], 1.33 µM (inactive); in assay [16], 0.0157 µM (active); in assay [17], < 0.01 µM (active). Moreover, in assay [19], the GI50 was 1.71 µM (inactive).
For the compound `COc1ccc(C2OC2C(=O)C23CC4CC(CC(C4)C2)C3)cc1` (configuration not stated), the GI50 in [1] was 14.4 µM (inactive); in assay [2] it was 54.6 µM (inactive); in [20], > 100 µM (inactive); in assay [3], > 100 µM (inactive); in assay [4], 31.9 µM (inactive); in [5], 44.8 µM (inactive). For the same compound, the GI50 was > 100 µM (inactive) in assay [6]; > 100 µM (inactive) in [7]; 76 µM (inactive) in assay [8]; 71.1 µM (inactive) in assay [9]; 58.6 µM (inactive) in assay [10]; > 100 µM (inactive) in assay [11]. Further, the GI50 in [12] was 10.4 µM (inactive); in assay [13] it was 45.6 µM (inactive); in [15] it was 31 µM (inactive); in [16], 15.9 µM (inactive); in assay [17], 47.1 µM (inactive); in assay [18], > 100 µM (inactive). Also, the GI50 in [19] is > 100 µM (inactive).
Take `CC1=CC(c2ccccc2)OP1(=O)c1ccccc1` (configuration not stated): the GI50 in [1], in [2], in assay [20], in assay [3], in [4] and in [5] was > 100 µM (inactive) in each case. The GI50 in [6], in assay [7], in assay [8], in [9], in assay [10] and in assay [11] was > 100 µM (inactive) in each case. Further, the GI50 in assay [12], in assay [13], in assay [14], in [15], in [16] and in assay [18] was > 100 µM (inactive) in each case. Further, the GI50 in assay [19] was > 100 µM (inactive).
Take `CNC1(C(=O)O)CC1`: the GI50 in [1] is 87.5 µM (inactive); in [2], > 100 µM (inactive); in assay [20] it was > 100 µM (inactive); in [3], > 100 µM (inactive); in assay [4] it was > 100 µM (inactive); in assay [5], > 100 µM (inactive). For the same compound, the GI50 in [6], in [7], in assay [8], in [9], in [10] and in [11] was > 100 µM (inactive) in each case. Besides, the GI50 in [12] is 69.2 µM (inactive); in [13], > 100 µM (inactive); in assay [15], > 100 µM (inactive); in assay [16], > 100 µM (inactive); in [17], > 100 µM (inactive); in assay [18], > 100 µM (inactive). The GI50 in [19] is > 100 µM (inactive).
Consider `O=C1c2c(ccc3c2CCCC3)CC12Cc1ccc3c(c1C2=O)CCCC3`, for which the GI50 in assay [1], in assay [2], in assay [20], in assay [3], in assay [4] and in [5] was > 100 µM (inactive) in each case. Also, the GI50 was > 100 µM (inactive) in assay [6]; 89.1 µM (inactive) in [7]; > 100 µM (inactive) in assay [8]; > 100 µM (inactive) in assay [9]; 77.4 µM (inactive) in assay [10]; > 100 µM (inactive) in [11]. The GI50 in assay [13] is > 100 µM (inactive); in assay [15] it was > 100 µM (inactive); in assay [16], > 100 µM (inactive); in [17], > 100 µM (inactive); in assay [18], > 100 µM (inactive); in assay [19] it was 28.2 µM (inactive).
Take `Cc1c(C#N)c(N)n(C2OCC(O)C(O)C2O)c(=S)c1C#N` (configuration not stated): the GI50 in assay [1], in assay [2], in assay [20], in [3], in assay [4] and in assay [5] was > 100 µM (inactive) throughout. Further, the GI50 in [6], in assay [7], in assay [8], in assay [9], in [11] and in assay [12] was > 100 µM (inactive) in each case. For the same compound, the GI50 in assay [13], in assay [14], in [15], in [16], in [17] and in assay [19] was > 100 µM (inactive) each time.
Consider `CC(=O)OC1C[C@@H](C)C2(C[C@H](O)c3ccoc3)C(=O)OC[C@]13C2CCC(O)C31CO1` (some centres not stated), for which the GI50 in assay [1] is 1.51 µM (inactive); in assay [2], > 100 µM (inactive); in [20], > 100 µM (inactive); in [3], > 100 µM (inactive); in [4] it was > 100 µM (inactive); in assay [5] it was > 100 µM (inactive). Moreover, the GI50 in assay [6], in assay [7], in assay [8], in [9], in assay [10] and in [11] was > 100 µM (inactive) each time. Also, the GI50 in [12] is > 100 µM (inactive); in [13], > 100 µM (inactive); in assay [14] it was > 100 µM (inactive); in [15] it was > 100 µM (inactive); in assay [16], > 10 µM (inactive); in [17], > 100 µM (inactive). Further, in assay [19], the GI50 was > 100 µM (inactive).
With `CC(C)(C)NC(=O)C12C3C4C1C1C2C3C41C(=O)NC(C)(C)C` (configuration not stated), the GI50 in [1], in [2], in assay [20], in [3], in assay [4] and in assay [5] was > 100 µM (inactive) throughout. For the same compound, the GI50 in assay [6], in assay [7], in assay [8], in assay [9], in assay [10] and in assay [11] was > 100 µM (inactive) throughout. Further, the GI50 in [12] is > 100 µM (inactive); in assay [13], > 100 µM (inactive); in assay [14], > 100 µM (inactive); in assay [15], > 100 µM (inactive); in assay [16], > 100 µM (inactive); in assay [17], 78.3 µM (inactive). Besides, the GI50 in [18] was > 100 µM (inactive).
In the case of `C[C@@H]1CC[C@]2(C)C3(C)CC[C@]2(OC3=O)[C@@]12CC(c1ccoc1)OC2=O` (some centres not stated), the GI50 in assay [1] is > 100 µM (inactive); in [20], 30.5 µM (inactive); in [3] it was 49.3 µM (inactive); in assay [4] it was 40.6 µM (inactive); in assay [5] it was 86.5 µM (inactive); in assay [6] it was 30.8 µM (inactive). The GI50 is > 100 µM (inactive) in assay [7]; 29.6 µM (inactive) in [8]; 26.9 µM (inactive) in [9]; 17.5 µM (inactive) in [10]; 22.4 µM (inactive) in assay [11]; 61.4 µM (inactive) in assay [12]. In addition, the GI50 in [13] is > 100 µM (inactive); in assay [14], 34.3 µM (inactive); in assay [15] it was > 100 µM (inactive); in assay [16], 21.6 µM (inactive); in assay [17], 31 µM (inactive); in [18], 72.3 µM (inactive). For the same compound, the GI50 in [19] was 21.1 µM (inactive).
As to `CC(=O)c1csc2c1C(=O)c1ccccc1C2=O`, the GI50 in [1] was 21.7 µM (inactive); in [2], 1.46 µM (inactive); in [20], 2.08 µM (inactive); in assay [3], 2.88 µM (inactive); in assay [4] it was 7.57 µM (inactive); in assay [5], 1.48 µM (inactive). The GI50 was 2.35 µM (inactive) in [6]; 46.7 µM (inactive) in assay [7]; 1.26 µM (inactive) in [8]; 2.4 µM (inactive) in assay [9]; 2.24 µM (inactive) in [10]; 2.02 µM (inactive) in [11]. The GI50 was 1.93 µM (inactive) in assay [12]; 1.92 µM (inactive) in [13]; 3.99 µM (inactive) in assay [14]; 1.75 µM (inactive) in assay [15]; 0.29 µM (active) in [16]; 5.78 µM (inactive) in [18]. In addition, the GI50 in assay [19] is 0.483 µM (active).
